Here are results for 14 molecules from ChEMBL document CHEMBL6087461, “Cell-Permeable Peptide Inhibitors of the p53-hDM2 Interaction via Foldamer Helix Mimicry and Bis-Thioether Stapling” (J Med Chem, 2025).

The target in experiment [1] is Tumour suppressor protein p53/Mdm4 (Homo sapiens, UniProt O15151). As to the kind of experiment: PROTAC activity at human DMX/p53 extracted from Escherichia coli interaction by measuring inhibition of interaction by time-resolved fluorescence energy transfer (TRFRET) detection method. The format is protein assay. In general terms: In TR-FRET formats the signal depends on donor and acceptor labels being close together.
Sequence of Tumour suppressor protein p53/Mdm4 (P04637 whole entry): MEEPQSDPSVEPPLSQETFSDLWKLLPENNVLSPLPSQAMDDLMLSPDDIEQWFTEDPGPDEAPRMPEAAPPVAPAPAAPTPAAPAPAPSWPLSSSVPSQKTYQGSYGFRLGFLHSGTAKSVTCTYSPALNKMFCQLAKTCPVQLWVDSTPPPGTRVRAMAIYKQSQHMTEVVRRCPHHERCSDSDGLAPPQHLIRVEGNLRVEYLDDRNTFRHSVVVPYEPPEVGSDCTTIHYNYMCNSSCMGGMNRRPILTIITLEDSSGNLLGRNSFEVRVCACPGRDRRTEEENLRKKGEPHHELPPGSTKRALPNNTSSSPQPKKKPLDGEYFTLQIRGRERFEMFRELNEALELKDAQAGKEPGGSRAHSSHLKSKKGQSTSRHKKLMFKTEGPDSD
Sequence of Tumour suppressor protein p53/Mdm4 (O15151 whole entry): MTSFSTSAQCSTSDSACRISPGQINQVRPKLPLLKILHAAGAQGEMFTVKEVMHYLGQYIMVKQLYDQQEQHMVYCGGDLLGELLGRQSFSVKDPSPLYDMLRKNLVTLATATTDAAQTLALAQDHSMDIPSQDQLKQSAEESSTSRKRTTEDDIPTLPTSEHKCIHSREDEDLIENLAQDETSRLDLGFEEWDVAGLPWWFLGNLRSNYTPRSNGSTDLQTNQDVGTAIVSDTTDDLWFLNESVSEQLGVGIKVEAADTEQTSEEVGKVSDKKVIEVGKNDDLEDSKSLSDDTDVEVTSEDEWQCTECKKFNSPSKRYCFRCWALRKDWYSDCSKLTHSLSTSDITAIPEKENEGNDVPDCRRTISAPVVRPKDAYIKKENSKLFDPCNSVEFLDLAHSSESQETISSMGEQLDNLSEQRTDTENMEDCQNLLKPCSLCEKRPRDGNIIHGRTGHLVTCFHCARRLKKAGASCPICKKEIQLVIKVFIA

Experiment [2] in a line: PROTAC activity at human DM2/p53 extracted from Escherichia coli interaction by measuring inhibition of interaction by time-resolved fluorescence energy transfer (TRFRET) detection method.
In experiment [3] the target is Tumour suppressor p53/oncoprotein Mdm2 (Homo sapiens) (UniProt P04637+Q00987). As to the kind of experiment: PROTAC activity at human MDM2/p53 extracted from Escherichia coli interaction by measuring inhibition of interaction at 100 nM by time-resolved fluorescence energy transfer (TRFRET) detection method relative to control. The format is protein assay.
Sequence of Tumour suppressor p53/oncoprotein Mdm2 (Homo sapiens) (P04637 whole entry, looked up): as the sequence (P04637 whole entry) above
Sequence of Tumour suppressor p53/oncoprotein Mdm2 (Homo sapiens) (Q00987 whole entry, looked up): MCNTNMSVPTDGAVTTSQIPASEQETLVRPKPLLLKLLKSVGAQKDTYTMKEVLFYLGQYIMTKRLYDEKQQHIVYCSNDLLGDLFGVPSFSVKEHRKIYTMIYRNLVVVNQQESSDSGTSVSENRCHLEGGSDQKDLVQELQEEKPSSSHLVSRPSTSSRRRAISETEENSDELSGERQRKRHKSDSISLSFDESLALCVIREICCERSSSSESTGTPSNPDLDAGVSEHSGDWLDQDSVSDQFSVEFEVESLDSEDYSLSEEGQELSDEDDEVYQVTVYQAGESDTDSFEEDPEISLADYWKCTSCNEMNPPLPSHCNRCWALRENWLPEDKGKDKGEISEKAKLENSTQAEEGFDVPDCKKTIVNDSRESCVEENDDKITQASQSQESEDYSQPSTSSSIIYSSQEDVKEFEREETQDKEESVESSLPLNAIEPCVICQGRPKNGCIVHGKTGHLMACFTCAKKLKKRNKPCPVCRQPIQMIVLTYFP
The target of experiment [4] is Tumour suppressor protein p53/Mdm4 (Homo sapiens) (UniProt P04637+O15151). As to the kind of experiment: PROTAC activity at human DMX/p53 extracted from Escherichia coli interaction at 100 nM by measuring inhibition of interaction by time-resolved fluorescence energy transfer (TRFRET) detection method relative to control. The format is protein assay.
Sequence of Tumour suppressor protein p53/Mdm4 (Homo sapiens) (O15151 whole entry, looked up): as the sequence (O15151 whole entry) above
Sequence of Tumour suppressor protein p53/Mdm4 (Homo sapiens) (P04637 whole entry, looked up): as the sequence (P04637 whole entry) above
The test system of experiment [5] is HCT-116. The experiment can be described thus: Cytotoxicity against human HCT116 cells expressing wild type p53 and overexpressing human DM2 assessed as cell viability measured after 72 hrs incubation by MTS cell viability assay. The format is functional, cell-based. On the technique in general: Tetrazolium dyes change colour on reduction, which living cells bring about.

For another experiment, the system named is MCF7. The experiment can be described thus: Cytotoxicity against human MCF7 cells expressing wild type p53 and overexpressing human DMX assessed as cell viability measured after 72 hrs incubation by MTS cell viability assay. The format is functional, cell-based.
Experiment [6] relates to HCT-116. As to the kind of experiment: Cytotoxicity against human HCT-116 cells assessed as cell viability at 100 uM by MTS cell viability assay. The format is functional, cell-based.
The nature of experiment [7]: Permeability in human HeLa cells transfected with Halo-GFP-Mito assessed as accumulation in cytosol measured after 4 hrs incubation by chloroalkane penetration assay. The format is ADME, subcellular.

Calls of active or inactive are those of the source. No cut-off for these calls is given here. Starred links: 1 amine or outer side, 2 acyl side, 3 side chain; linkers in the order of their positions; H or OH if unused. Positions of bridges follow the written chain, without caps; N, C: chain ends. Residues, ends and D or L forms follow the SMILES beside them. *: point of attachment. X2 = CC(C)[C@@H](CNC(N)=O)NC(=O)NC[C@H](C)NC(=O)NC[C@H](CSCC(=O)NCCNC(=O)C[*:1])N[*:2]; X1 = CC(C)[C@@H](CNC(N)=O)NC(=O)NC[C@H](C)NC(=O)NC[C@H](CSCCCCCC[*:1])N[*:2]; X6 = CC(C)[C@@H](CNC(N)=O)NC(=O)NC[C@H](CSCCCCCC[*:1])NC(=O)NC[C@H](C)N[*:2]; X5 = CC(C)[C@@H](CNC(N)=O)NC(=O)NC[C@H](C)NC(=O)NC[C@H](CSCCC[*:1])N[*:2]; X3 = CC(C)[C@@H](CNC(N)=O)NC(=O)NC[C@H](C)NC(=O)NC[C@H](C)N*; NH(CH2CH2O)2(CH2)6Cl = ClCCCCCCOCCOCCN*; Suc = O=C(CCC(=O)[*:2])[*:1]; X4 = C(C[*:1])C[*:2]

In the case of `CC(=O)N[C@@H](CCCCN)C(=O)N[C@H](C(=O)N[C@@H](Cc1ccccc1)C(=O)N[C@@H](C)C(=O)N[C@@H](CCC(=O)O)C(=O)N[C@@H](Cc1ccc(O)cc1)C(=O)N[C@@H](Cc1c[nH]c2ccccc12)C(=O)N[C@@H](C)CNC(=O)N[C@@H](C)CNC(=O)N[C@H](CNC(N)=O)C(C)C)[C@@H](C)O` (Ac-KTFAEYW-X3), the 50% inhibitory concentration (IC50) in experiment [1] came out at 23800 nM; in experiment [2], 5.7 nM.
Turning to `CC(C)[C@@H](CNC(N)=O)NC(=O)NC[C@H](C)NC(=O)NC[C@H](C)NC(=O)[C@H](Cc1c[nH]c2ccccc12)NC(=O)[C@H](Cc1ccc(O)cc1)NC(=O)[C@@H]1CSCCCSC[C@H](N)C(=O)N[C@@H](CO)C(=O)N[C@@H](Cc2ccccc2)C(=O)N[C@@H](C)C(=O)N1` (H-CSFACYW-X3; linker 1-5 via X4), the inhibition in experiment [3] amounted to 98%; in experiment [4], 68%. Besides, the IC50 in experiment [1] was determined as 80000 nM; in experiment [2] it was 23.4 nM.
For the molecule `CC(C)[C@@H](CNC(N)=O)NC(=O)NC[C@H](C)NC(=O)NC[C@@H]1CSCC(=O)NCCNC(=O)CSC[C@H](NC(=O)[C@H](Cc2ccccc2)NC(=O)[C@H](CO)NC(=O)[C@H](CCCCN)NC(=O)[C@H](CCCNC(=N)N)NC(=O)[C@H](CCCNC(=N)N)NC(=O)[C@@H](N)CCCNC(=N)N)C(=O)N[C@@H](CCC(=O)O)C(=O)N[C@@H](Cc2ccc(O)cc2)C(=O)N[C@@H](Cc2c[nH]c3ccccc23)C(=O)N1` (H-RRRKSFCEYW; linker 7-C via X2), the Activity entry with HCT-116 [5] is “Not active; Compound Was Poorly Active Even At High Concentration”. Also, the inhibition in experiment [3] turned out to be 99%; in experiment [4] it was 98%. The figures for the IC50 in experiment [1] and in experiment [2] were 10300 nM and 3.6 nM, respectively. Besides, in the experiment on MCF7, the result was inactive.
As to `CC(C)[C@@H](CNC(N)=O)NC(=O)NC[C@H](C)NC(=O)NC[C@H](C)NC(=O)[C@H](Cc1c[nH]c2ccccc12)NC(=O)[C@H](Cc1ccc(O)cc1)NC(=O)[C@@H]1CSCCCSC[C@H](NC(=O)[C@@H](N)[C@@H](C)O)C(=O)N[C@@H](Cc2ccccc2)C(=O)N[C@@H](C)C(=O)N1` (H-TCFACYW-X3; linker 2-5 via X4), the inhibition was determined as 41% in experiment [3] and 20% in experiment [4]. Further, the IC50 stood at 763000 nM in experiment [1] and 109 nM in experiment [2].
Regarding `CC(C)[C@@H](CNC(N)=O)NC(=O)NC[C@@H]1CSCCCCCCSC[C@H](NC(=O)[C@H](C)NC(=O)[C@H](Cc2ccccc2)NC(=O)[C@H](CO)NC(=O)[C@@H](N)[C@@H](C)O)C(=O)N[C@@H](Cc2ccc(O)cc2)C(=O)N[C@@H](Cc2c[nH]c3ccccc23)C(=O)N[C@@H](C)CNC(=O)N1` (H-TSFACYW; linker 5-C via X6), the figures for the inhibition in experiment [3] and in experiment [4] were 86% and 11%, respectively. The IC50 in experiment [1] amounted to 196000 nM; in experiment [2], 33.1 nM.
For `CC(C)[C@@H](CNC(N)=O)NC(=O)NC[C@H](C)NC(=O)NC[C@H](C)NC(=O)[C@H](Cc1c[nH]c2ccccc12)NC(=O)[C@H](Cc1ccc(O)cc1)NC(=O)[C@H](CCC(=O)O)NC(=O)[C@H](C)NC(=O)[C@H](Cc1ccccc1)NC(=O)[C@H](CO)NC(=O)[C@@H](N)[C@@H](C)O` (H-TSFAEYW-X3), the values for the inhibition in experiment [3] and in experiment [4] were 97% and 61%, respectively. For the same molecule, the figures for the half-inhibitory concentration (IC50) in experiment [1] and in experiment [2] were 82000 nM and 23.8 nM, respectively.
`CC(C)[C@@H](CNC(N)=O)NC(=O)NC[C@H](C)NC(=O)NC[C@@H]1CSCCCCCCSC[C@H](NC(=O)[C@H](Cc2ccccc2)NC(=O)[C@H](CO)NC(=O)[C@@H](N)[C@@H](C)O)C(=O)N[C@@H](CCC(=O)O)C(=O)N[C@@H](Cc2ccc(O)cc2)C(=O)N[C@@H](Cc2c[nH]c3ccccc23)C(=O)N1` (H-TSFCEYW; linker 4-C via X1): the outcome in the experiment on HCT-116 [5], in the experiment on HCT-116 [6] and in the experiment on MCF7 was inactive. The inhibition in experiment [3] worked out at 97%; in experiment [4], 52%. In addition, the concentration for half-maximal inhibition (IC50) in experiment [1] came out at 127000 nM; in experiment [2], 19.3 nM.
With `CC(C)[C@@H](CNC(N)=O)NC(=O)NC[C@H](C)NC(=O)NC[C@@H]1CSCC(=O)NCCNC(=O)CSC[C@H](NC(=O)[C@H](Cc2ccccc2)NC(=O)[C@H](CO)NC(=O)[C@@H](N)[C@@H](C)O)C(=O)N[C@@H](CCC(=O)O)C(=O)N[C@@H](Cc2ccc(O)cc2)C(=O)N[C@@H](Cc2c[nH]c3ccccc23)C(=O)N1` (H-TSFCEYW; linker 4-C via X2), the inhibition is 99% in experiment [3] and 91% in experiment [4]. Also, the outcome in the experiment on HCT-116 [6] was inactive. In addition, the IC50 was determined as 28000 nM in experiment [1] and 10.1 nM in experiment [2].
As for `CC(C)[C@@H](CNC(N)=O)NC(=O)NC[C@H](C)NC(=O)NC[C@@H]1CSCCCSC[C@H](NC(=O)[C@H](Cc2ccccc2)NC(=O)[C@H](CO)NC(=O)[C@@H](N)[C@@H](C)O)C(=O)N[C@@H](CCC(=O)O)C(=O)N[C@@H](Cc2ccc(O)cc2)C(=O)N[C@@H](Cc2c[nH]c3ccccc23)C(=O)N1` (H-TSFCEYW; linker 4-C via X5), the inhibition in experiment [3] stood at 86%; in experiment [4], 50%. Also, the IC50 in experiment [1] was 108000 nM; in experiment [2], 25.6 nM.
Consider `CC(C)[C@@H](CNC(N)=O)NC(=O)NC[C@H](C)NC(=O)NC[C@H](C)NC(=O)[C@H](Cc1c[nH]c2ccccc12)NC(=O)[C@H](Cc1ccc(O)cc1)NC(=O)[C@H](CCC(=O)O)NC(=O)[C@H](C)NC(=O)[C@H](Cc1ccccc1)NC(=O)[C@@H](NC(=O)[C@H](CCCCN)NC(=O)CCC(=O)NCCOCCOCCCCCCCl)[C@@H](C)O` ({NH(CH2CH2O)2(CH2)6Cl-Suc}-KTFAEYW-X3), for which, in experiment [7], the 50% effective concentration (EC50) turned out to be 1950 nM.
On to `CC(C)[C@@H](CNC(N)=O)NC(=O)NC[C@H](C)NC(=O)NC[C@@H]1CSCCCCCCSC[C@H](NC(=O)[C@H](Cc2ccccc2)NC(=O)[C@@H](NC(=O)[C@H](CCCCN)NC(=O)CCC(=O)NCCOCCOCCCCCCCl)[C@@H](C)O)C(=O)N[C@@H](CCC(=O)O)C(=O)N[C@@H](Cc2ccc(O)cc2)C(=O)N[C@@H](Cc2c[nH]c3ccccc23)C(=O)N1` ({NH(CH2CH2O)2(CH2)6Cl-Suc}-KTFCEYW; linker 4-C via X1), for which, in experiment [7], the EC50 came out at 510 nM.
Same read-out and setting: under `CC(C)[C@@H](CNC(N)=O)NC(=O)NC[C@H](C)NC(=O)NC[C@@H]1CSCCCCCCSC[C@H](NC(=O)[C@H](Cc2ccccc2)NC(=O)[C@H](CO)NC(=O)[C@H](CCCCN)NC(=O)[C@H](CCCNC(=N)N)NC(=O)[C@H](CCCNC(=N)N)NC(=O)[C@H](CCCNC(=N)N)NC(=O)CCC(=O)NCCOCCOCCCCCCCl)C(=O)N[C@@H](CCC(=O)O)C(=O)N[C@@H](Cc2ccc(O)cc2)C(=O)N[C@@H](Cc2c[nH]c3ccccc23)C(=O)N1` ({NH(CH2CH2O)2(CH2)6Cl-Suc}-RRRKSFCEYW; linker 7-C via X1) stands 1900 nM; under `CC(C)[C@@H](CNC(N)=O)NC(=O)NC[C@H](C)NC(=O)NC[C@@H]1CSCC(=O)NCCNC(=O)CSC[C@H](NC(=O)[C@H](Cc2ccccc2)NC(=O)[C@H](CO)NC(=O)[C@H](CCCCN)NC(=O)[C@H](CCCNC(=N)N)NC(=O)[C@H](CCCNC(=N)N)NC(=O)[C@H](CCCNC(=N)N)NC(=O)CCC(=O)NCCOCCOCCCCCCCl)C(=O)N[C@@H](CCC(=O)O)C(=O)N[C@@H](Cc2ccc(O)cc2)C(=O)N[C@@H](Cc2c[nH]c3ccccc23)C(=O)N1` ({NH(CH2CH2O)2(CH2)6Cl-Suc}-RRRKSFCEYW; linker 7-C via X2), 3300 nM.
Turning to `N[C@@H](Cc1c[nH]c2ccccc12)C(=O)O` [TRYPTOPHAN], the EC50 in experiment [7] was determined as 87 nM.

As usually defined, the IC50 is the point on the concentration scale where inhibition reaches its midpoint. A higher IC50 goes with lower potency. In general, inhibition refers to the drop in the measured response relative to a control, in per cent. The low end stands for little suppression, the high end for strong suppression. Usually EC50 stands for the concentration needed to bring the measured effect to its halfway point.
